From patent US11124526B2, “Crystalline beta-lactamase inhibitor” (Allecra Therapeutics SAS, priority 2013, dated 2021)
In brackets after ≈: the same amount, converted by molar mass.

Assays:
Type in all cases: physicochemical
[1] = Inventors' findings on hygroscopicity and stability of amorphous versus crystalline compound of formula (I)
[2] = Solubility of amorphous compound of formula (I) in selected solvents (slurry stirred 4 hours, mother liquor by HPLC); conditions: thermodynamic from solid
Experimental: Solubility values of solvents were calculated with respect to the HPLC response factor, set out in FIG. 12.
HPLC response factor was calculated for the amorphous compound of formula (I) using samples dissolved in acetonitrile/water 9/1 with the following method: • Column: ZORBAX Eclipse XDB-C18 (150×4.6 mm, 5 μm) • Temperature: 25° C. • Mobile phase: A: 0.05M Sodium ortophosphate/water, B: Acetonitrile • Gradient: from 5% of B to 95% of B in 10 min • Detector: UV λ=220 nm
Slurries of the amorphous compound of formula (I) in the selected solvents were prepared and stirred at 20° C. and 40° C. for 4 hours. • Samples of each slurry were filtered and the mother liquors injected in HPLC. • The solid residual were isolated and analyzed by XRPD. • The results are summarized in the following Table 4.

[3] = Hygroscopicity of Form F (% weight change at 25° C. and 80% RH)
Experimental: The hygroscopicity was calculated using the following equation: % Weight Change=[(W2−W1)W1]*100 wherein, • W1 is weight of sample at the start of the experiment; and • W2 is weight of sample at 25° C. and 80% RH in the first absorption cycle.

[4] = Dynamic Vapor Sorption (DVS) of Form F; conditions: 25° C.
Experimental: Kinetic moisture sorption measurements were performed at 25° C. and at relative humidity (RH % target as follows: • From 40% RH to 90% RH • Form 90% RH to 0% RH • From 0% RH to 90% RH • From 90% RH to 0% RH The kinetic moisture sorption measurement was performed at 25° C. and in a RH % range described in the following: • From 40% RH to 90% RH • Form 90% RH to 0% RH • From 0% RH to 90% RH • From 90% RH to 0% RH The experiment is performed on 10-15 mg of sample and the equilibrium criterion is set as dm/dt<0.002% w/w in 10 min with a maximum step time of 240 min.

[5] = Stability tests of Form F stored at controlled temperature and RH
[6] = Solubility assessment of Form C in saline physiological solution (HPLC)
Experimental: The Form C solubility was calculated by HPLC employing a dedicated walk-up method. The product obtained by the scaled up procedure described in Example 13 was used to perform the experiments.
1.9 g of the product was suspended in 1 ml of commercial physiologic solution (0.9% of NaCl) at ambient temperature (˜20 ° C.). The suspension resulted slightly opaque and quite viscous after 30 min. After this time the suspension was sampled and the sample injected in HPLC to determine its concentration. After 2 hrs stirring the solid residue was completely dissolved. The addition of more solid was not performed to avoid the gelatinisation of the viscous solution. A sample was taken and injected in HPLC to determine its concentration. The solution was stirred other 3 hrs and sampled again. The 5 hrs sample was also injected in HPLC to determine its concentration.

[7] = 25° C. and 80% RH, first absorption cycle

C[n+]1ccn(C[C@@]2(C)[C@H](C(=O)[O-])N3C(=O)C[C@H]3S2(=O)=O)n1 [amorphous compound of formula (I), (2S,3S,5R)-3-methyl-3-((3-methyl-1H-1,2,3-triazol-3-ium-1-yl)methyl)-7-oxo-4-thia-1-azabicyclo[3.2.0]heptane-2-carboxylate 4,4-dioxide]
Hygroscopicity (statement in words) [1]: hygroscopic
Stability when stored ([1]; stored at room temperature): limited stability
solubility at 4 h ([2]; organic solvent or mixture, 1-butanol, 20° C.): 97 mg/mL
solubility at 4 h ([2]; organic solvent or mixture, 1-butanol, 40° C.): 167 mg/mL
solubility at 4 h ([2]; organic solvent or mixture, 1-propanol, 20° C.): 295 mg/mL
solubility at 4 h ([2]; organic solvent or mixture, 1-propanol, 40° C.): > 400 mg/mL
solubility at 4 h ([2]; organic solvent or mixture, 2-propanol, 20° C.): 23 mg/mL
solubility at 4 h ([2]; organic solvent or mixture, 2-propanol, 40° C.): 28 mg/mL
solubility at 4 h ([2]; organic solvent or mixture, Acetonitrile, 20° C.): 6 mg/mL
solubility at 4 h ([2]; organic solvent or mixture, Dimethylsulfoxide, 20° C.): > 400 mg/mL
solubility at 4 h ([2]; organic solvent or mixture, Dimethylsulfoxide, 40° C.): > 400 mg/mL
solubility at 4 h ([2]; organic solvent or mixture, Ethanol, 20° C.): 420 mg/mL
solubility at 4 h ([2]; organic solvent or mixture, Ethanol, 40° C.): > 420 mg/mL
solubility at 4 h ([2]; organic solvent or mixture, Ethanol/acetone 20%, 20° C.): > 300 mg/mL
solubility at 4 h ([2]; organic solvent or mixture, Ethanol/acetone 40%, 20° C.): > 300 mg/mL
solubility at 4 h ([2]; organic solvent or mixture, Ethanol/methyl tert-butyl ether 20%, 20° C.): 52 mg/mL
solubility at 4 h ([2]; organic solvent or mixture, Ethanol/methyl tert-butyl ether 40%, 20° C.): 16 mg/mL
solubility at 4 h ([2]; organic solvent or mixture, Methanol, 20° C.): > 400 mg/mL
solubility at 4 h ([2]; organic solvent or mixture, Methanol, 40° C.): > 400 mg/mL
solubility at 4 h ([2]; Water, 20° C.): > 400 mg/mL
solubility at 4 h ([2]; Water, 40° C.): > 400 mg/mL

C[n+]1ccn(C[C@@]2(C)[C@H](C(=O)[O-])N3C(=O)C[C@H]3S2(=O)=O)n1 [Form F, (2S,3S,5R)-3-methyl-3-((3-methyl-1H-1,2,3-triazol-3-ium-1-yl)methyl)-7-oxo-4-thia-1-azabicyclo[3.2.0]heptane-2-carboxylate 4,4-dioxide]
Hygroscopicity classification [3, 7]: very hygroscopic
Mass increase (% Weight Change) [3, 7]: greater than 15%
Appearance at high humidity ([3]; high humidity): becomes a viscous liquid
Relative humidity up to which the form is stable (DVS) [4]: approximately 50 % RH
Weight increase (DVS) ([4]; at 90% RH): greater than 50 % w/w
Water sorption behaviour after the weight increase at 90% RH (DVS) ([4]; following cycles): releases and takes water reversibly
Stability on storage (appearance) ([5]; after a day at 25° C. and 60% RH): becomes a viscous liquid
Stability on storage (appearance) ([5]; after a day at 60° C. and 75% RH): becomes a viscous liquid

C[n+]1ccn(C[C@@]2(C)[C@H](C(=O)[O-])N3C(=O)C[C@H]3S2(=O)=O)n1 [Form C, (2S,3S,5R)-3-methyl-3-((3-methyl-1H-1,2,3-triazol-3-ium-1-yl)methyl)-7-oxo-4-thia-1-azabicyclo[3.2.0]heptane-2-carboxylate 4,4-dioxide]
Formation of impurities in physiologic solution (HPLC traces) ([6]; 0.9% NaCl, ambient temperature, up to 5 hrs): did not show the formation of significant impurities
solubility at 30 min ([6]; physiologic solution (0.9% NaCl), saline or isotonic, thermodynamic from solid, physiologic solution (0.9% of NaCl), ~20 ° C., timepoint 30 mins, read-out: Solubility (mg/ml) at ambient temperature): 772 mg/mL (≈ 2460 mM)
solubility at 2 h ([6]; physiologic solution (0.9% NaCl), saline or isotonic, thermodynamic from solid, physiologic solution (0.9% of NaCl), ~20 ° C., timepoint 2 hours, solid completely dissolved, read-out: Solubility (mg/ml) at ambient temperature): > 883 mg/mL
solubility at 5 h ([6]; physiologic solution (0.9% NaCl), saline or isotonic, thermodynamic from solid, physiologic solution (0.9% of NaCl), ~20 ° C., timepoint 5 hours, read-out: Solubility (mg/ml) at ambient temperature): > 812 mg/mL
